From ChEMBL document CHEMBL1126075, “Chemistry and anti-HIV properties of 2'-fluoro-2',3'-dideoxyarabinofuranosylpyrimidines” (J Med Chem, 1992)

Key:
[1] = Partition coefficient (logP); type: physicochemical; conditions: octanol/water
[2] = tested on: ATH-8 cell line; assay: Percent protection of ATH8 cells from HIV-induced cytopathic effects at a concentration of 5 uM.; type: functional, Homo sapiens
[3] = tested on: ATH-8 cell line; assay: Percent protection of ATH8 cells from HIV-induced cytopathic effects at a concentration of 0.2 uM.; type: functional, Homo sapiens
[4] = tested on: ATH-8 cell line; assay: Percent protection of ATH8 cells from HIV-induced cytopathic effects at a concentration of 1 uM.; type: functional, Homo sapiens
[5] = tested on: ATH-8 cell line; assay: Percent cytotoxicity against ATH8 cells at a concentration of 0.2 uM.; type: functional; conditions: Homo sapiens
[6] = tested on: ATH-8 cell line; assay: Percent cytotoxicity against ATH8 cells at a concentration of 0.5 uM.; type: functional; conditions: Homo sapiens
[7] = tested on: ATH-8 cell line; assay: Percent cytotoxicity against ATH8 cells at a concentration of 1 uM.; type: functional; conditions: Homo sapiens
[8] = tested on: ATH-8 cell line; assay: Percent cytotoxicity against ATH8 cells at a concentration of 5 uM.; type: functional; conditions: Homo sapiens
[9] = tested on: CCRF-CEM; assay: Effect on HIV-induced cytopathogenesis in CEM cells.; type: functional, cell-based; conditions: Homo sapiens
[10] = Therapeutic index (IC50/EC50) was determined; conditions: read-out: TI
[11] = tested on: ATH-8 cell line; assay: Percent protection of ATH8 cells from HIV-induced cytopathic effects at a concentration of 0.5 uM.; type: functional, Homo sapiens

Compound	logP [1]	Protection [2]	Protection [3]	Protection [4]	cytotoxicity at 0.2 µM [5]	cytotoxicity at 0.5 µM [6]	cytotoxicity at 1 µM [7]	cytotoxicity at 5 µM [8]	EC50 [9]	IC50 [9]	selectivity ratio [10]	Protection [11]
Nc1ccn([C@H]2C=C[C@@H](CO)O2)c(=O)n1	-1.57	–	–	–	–	–	–	–	–	–	–	–
Cc1cn([C@@H]2O[C@H](CO)C[C@H]2F)c(=O)[nH]c1=O	-0.44	–	–	–	–	–	–	–	–	–	–	–
Nc1ccn([C@@H]2O[C@H](CO)C[C@@H]2F)c(=O)n1	-1.18	53%	3%	56%	0%	8%	4%	1%	1.1 µM	43 µM	39	25%
O=c1ccn(C2CCC(CO)O2)c(=O)[nH]1 (stereo not given)	-1	–	–	–	–	–	–	–	–	–	–	–
Nc1nc(=O)n(C2OC(CO)CC2F)cc1Cl (stereo not given)	-0.46	–	–	–	–	–	–	–	–	–	–	–
Nc1nc(=O)n([C@@H]2CC[C@H](CO)O2)cc1F	-1.09	99%	71%	100%	0%	0%	1%	4%	0.1 µM	> 40 µM	> 400	96%
O=c1[nH]c(=O)n(C2OC(CO)CC2F)cc1F (stereo not given)	-0.72	–	–	–	–	–	–	–	–	–	–	–
Nc1nc(=O)n(C2OC(CO)CC2F)cc1F (stereo not given)	-0.92	73%	0%	7%	0%	0%	8%	0%	57.7 µM	> 580 µM	> 10	8%
O=c1ccn(C2OC(CO)CC2F)c(=O)[nH]1 (stereo not given)	-0.87	–	–	–	–	–	–	–	–	–	–	–
O=c1[nH]c(=O)n(C2OC(CO)CC2F)cc1Cl (stereo not given)	-0.28	–	–	–	–	–	–	–	–	–	–	–
O=c1ccn([C@@H]2O[C@H](CO)[C@@H](O)[C@H]2O)c(=O)[nH]1 [URIDINE]	-1.94	–	–	–	–	–	–	–	–	–	–	–
Nc1ccn([C@H]2CC[C@@H](CO)O2)c(=O)n1 [ZALCITABINE]	–	88%	93%	100%	6%	0%	9%	1%	0.3 µM	120 µM	380	100%
